Columns and labels:
Format in all cases: cell-based, human
isolated neutrophils = experiment: Glutamate biosensor recording of PMA-stimulated glutamate release, glutamate antagonist experiment (FIG. 1E)
Procedure: Neutrophil preparation from 15 ml of whole blood was achieved by first adding 30 ml PBS under sterile conditions. Half of the PBS/Blood mix was carefully layered on a 15 ml layer of Ficoll-Paque Plus solution in two separate 50 ml falcons using an electronic pipette. The sample was then centrifuged at 1400 rpm at room temp for 30 minutes. 15 ml of sterile blood lysis buffer was added to the pellet centrifuged at 1200 rpm, undergoing 2 lysis cycles. The remaining pellet was washed with sterile PBS, resuspended in 10 ml PBS and the cells were counted. 10 mmol/L of glucose (plasma concentration) was then added in the sample. […]
The sensors were calibrated after every run with stock solutions: 20 μM (in neutrophils) or 40 μM (in blood) of glutamate, <<insert for lactate>> 1 μM (in neutrophils) or 10 μM (in blood) of D-Serine, 10 μM (in neutrophils) or (13.3 μM) of ATP and 0.748 μM adenosine in blood only. To convert changes in the sensor current to changes in the analyte concentrations, the midpoint of the calibration signal at the end of each run and the midpoint of the peak of the net responses (measured from the extrapolated baseline) were used. […]
This experiment was carried out using isolated neutrophils or whole blood from a patient. […] A null sensor measured non-specific release of oxygen reactive species. […]

heparinised whole blood [1] = experiment: Glutamate biosensor recording of glutamate release in stimulated whole blood
Procedure: Recordings were carried out in a custom made chamber (1.7 ml maximum volume) and the temperature of the chamber was controlled by a Circulator C-85D. The sensors were connected to a Due-Stat ME200+ potentiostat (Sycopel International Ltd, Jarrow, UK) which was then connected to a Power 1401 interface for processing of the signal. The operating potential for Sarissaprobes was +600 mV and −50 mV for Sarissagold sensors (switched to +600 m V when not operating). The recordings were analysed by Spike2 software.
Blood was collected from patients or from healthy volunteers and stored in heparinised vials (local ethics approved). The samples were kept on ice and were tested within 1 h of collection. […]
Unless stated otherwise, samples of whole blood from human patients were analysed using the Sarissaprobes and Sarissagold glutamate sensors. […]

heparinised whole blood [2] = experiment: ATP biosensor recording of ATP release in whole blood; conditions: 1 ml heparinised whole blood, 37° C.; FIG. 2
Procedure: (§1) The ATP sensors comprised two enzymes, glycerol kinase and glycerol-3-phosphate Oxidase, the adenosine sensor comprised of three enzymes, adenosine deaminase, nucleoside phosphorylase, and xanthine oxidase while the glutamate sensor contained glutamate oxidase. The D-Serine sensor contained D-amino acid oxidase. The ATP sensor had to be stored in 1M glycerol solution for 30 min to be able to operate.
(§2) 1.5 ml of the prepared sample (whole blood or isolated neutrophils in PBS/glucose) was pipetted into the temperature controlled chamber with a micro-magnetic stirrer for 5 minutes before the sensors were inserted. The sensors were held on a stereotaxic micro-manipulator with the entire sensing tip inserted in the sample, ensuring maximum analyte detection probability. Recordings were done with either all sensors simultaneously or with various combinations according to the sensor availability and aim of the experiment. […] After any detected response signal levelled off, the calibrations were carried out. […]
Samples of whole blood from human patients were analysed using the Sarissagold ATP sensor.
(§3) PMA was added to 1 ml heparinised whole blood maintained at 37° C. […] A null sensor measured non-specific release of oxygen reactive species. […]

heparinised whole blood [3] = experiment: D-serine biosensor recording of D-serine release in whole blood; conditions: 1 ml heparinised whole blood, 37° C.; FIG. 3
Procedure: as §1, §2
Samples of whole blood from human patients were analysed using the Sarissagold D-Serine sensor.
as §3

heparinised whole blood [4] = experiment: Acetylcholine biosensor recording of acetylcholine release in whole blood; conditions: 1 ml heparinised whole blood, 37° C.; FIG. 4
Procedure: 1.5 ml of the prepared sample (whole blood or isolated neutrophils in PBS/glucose) was pipetted into the temperature controlled chamber with a micro-magnetic stirrer for 5 minutes before the sensors were inserted. The sensors were held on a stereotaxic micro-manipulator with the entire sensing tip inserted in the sample, ensuring maximum analyte detection probability. Recordings were done with either all sensors simultaneously or with various combinations according to the sensor availability and aim of the experiment. Once a steady-state baseline was achieved, 100 nM of PMA or opsonised E. coli were added to the chamber, avoiding contact with the sensors to limit the noise interference. After any detected response signal levelled off, the calibrations were carried out. A control run was always carried out for each experiment where only PMA/E. coli was applied followed by a calibration. The chamber and the sensors were rinsed with PBS or distilled water before every run.
Samples of whole blood from human patients were analysed using the Sarissagold acetylcholine sensor.
PMA was added to 1 ml heparinised whole blood maintained at 37° C. (as indicated by PMA in FIG. 4). A null sensor measured non-specific release of oxygen reactive species. The accetylcholine sensor detects acetylcholine release in real time. The tips of the sensors were 2 mm under the surface of the blood. […]

SMILES | PMA-stimulated glutamate release in the presence of the antagonist (isolated neutrophils; isolated neutrophils, antagonist 100 μM added 1 minute before PMA) | response recorded using the glutamate sensor after addition of the stimulus (heparinised whole blood [1]; 1 ml heparinised whole blood, 37° C., FIG. 1A/1B) | glutamate release on subsequent stimulation (heparinised whole blood [1]; PMA added 5 minutes after opsonised E. coli, FIG. 1C) | release of glutamate (isolated neutrophils; PMA added to 1 ml heparinised whole blood (so in the source), no antagonist) [μm] | response recorded using the ATP sensor after addition of the stimulus (heparinised whole blood [2]) | response recorded using the D-serine sensor after addition of the stimulus (heparinised whole blood [3]) | response recorded using the acetylcholine sensor after addition of the stimulus (heparinised whole blood [4])
Cc1ccc(CC2(O)CCN(CCOc3ccc(O)cc3)CC2)cc1 [CO101244] | failed to increase glutamate release | – | – | – | – | – | –
CCCCCCCCCCCCCC(=O)O[C@@H]1[C@@H](C)[C@@]2(O)[C@@H](C=C(CO)C[C@]3(O)C(=O)C(C)=C[C@@H]23)[C@@H]2C(C)(C)[C@]12OC(C)=O [PMA, phorbol myristate acetate] | – | led to an increase in the response | failed to increase glutamate release | ~15 | led to an increase in the response | led to an increase in the response | led to an increase in the response

— patent publication US12449415B2, “Diagnostics” (Queen Mary University of London, priority 2014, dated 2025)
